Measurements published in patent US20120142730A1 (priority 2010, published 2012).

Tested on: subjects with relapsing remitting multiple sclerosis (RRMS)
Assay: ALLEGRO phase III trial: disability endpoints (EDSS, MSFC)
Assay type: in vivo, human
Conditions: for Patients with confirmed (3 months) EDSS progression: after 24 months
Experimental: Eligible subjects were equally randomized 1:1 into one of the following treatment arms: • 1. […] 21, 2007 (see, page 10, line 5 to page 11, line 3). • 2. Matching placebo for laquinimod arm: one capsule is administered once daily. Secondary endpoints were disability progression as measured by the EDSS and the Multiple Sclerosis Functional Composite (MSFC). Confirmed disability progression was defined as an increase of ≧1.0 EDSS point from baseline if baseline EDSS was between 0 and 5.0, or an increase of ≧0.5 point if baseline EDSS was ≧5.5. In order to confirm EDSS progression, these increases had to be sustained for at least three months. Additional predefined disability endpoints include the proportion of patients without confirmed disability progression at 24 months; confirmed disability progression (defined as change in EDSS scores≧1.0 points for baseline EDSS 0 to 5.0 or ≧5.5) sustained for six months; the accumulation of physical disability as measured by mean EDSS and the mean change in EDSS from baseline to last observed value (LOV). For the MSFC, the measure was the total MSFC z score at 24 months (including patients who terminated after 12 months). The 9-hole peg test (9HPT) and the Paced Auditory Serial Addition Test (PASAT) were performed three times at screening to reduce confounding training effects during the trial. The analysis of the accumulation of physical disability is based on Cox's Proportional Hazard model. The analysis of MSFC is based on baseline-adjusted Analysis of Covariance. The analysis of the secondary MRI endpoints is based on baseline-adjusted Negative Binomial Regression. To control against type-I error, the secondary endpoints were analyzed only after a significant effect was found for the primary endpoint. Likewise, the study's overall type-I error was further controlled in the analysis of the secondary endpoints by applying the following gate-keeping approach: both the cumulative number of new/enlarging T2 and the cumulative number of GdE lesions at months 12 and 24 were tested simultaneously and needed to be statistically significant at p<0.05, or one needed to be significant at p<0.025 if the other endpoint was not statistically significant at the 5% level. If the above condition was met, the study then proceeded to the analysis of the confirmed EDSS progression endpoint, if this endpoint was significant at 5% level, the analysis was done for the total MSFC z-scores. The analysis of risk to confirmed disability progression using the ITT cohort was based on Cox's Proportional Hazard model adjusted to baseline EDSS, log of the prior 2 year number of relapses +1 and geographical region. The MSFC at month 24 was analyzed using a baseline-adjusted ANCOVA (SAS@PROC GLM) with baseline MSFC as 1 degree of freedom covariate and baseline EDSS score, log of the 2-year prior relapse rate +1 and country or geographical region as additional covariates.

[1] = 0.6 mg daily oral, listed as laquinimod

Structure (SMILES): CCN(C(=O)c1c(O)c2c(Cl)cccc2n(C)c1=O)c1ccccc1 [Laquinimod, laquinimod]
- Median EDSS score at LOV (0.6 mg daily oral): 2.5
- Decrease in the risk for 6 month confirmed EDSS progression (0.6 mg daily oral vs placebo): 48%
- Reduction in risk of confirmed progression requiring persistence of EDSS change at the last available visit (0.6 mg daily oral vs placebo): 35%
- Time to confirmed (3 Ms) progression EDSS: reduction of risk to progress (0.6 mg daily oral vs placebo): 36% reduction of risk
- Adjusted mean total MSFC z score at 24 months, difference from placebo (0.6 mg daily oral vs placebo, p=0.5893): no significant differences
- Time to confirmed (3 Ms) progression EDSS: reduction of risk to progress (0.6 mg daily oral vs placebo, listed as laquinimod): 36%
- Patients with confirmed (3 months) EDSS progression (0.6 mg daily oral): 9.8% progressed
- Patients with confirmed (3 months) EDSS progression [1]: 9.8%
- Mean EDSS score at LOV (0.6 mg daily oral, baseline adjusted ANCOVA): 2.68
- Patients with no confirmed disability progression at LOV (0.6 mg daily oral, n = 550): (90.2%)
- Patients with no confirmed disability progression at LOV, number (0.6 mg daily oral, n = 550): 496
- MSFC total z score at 24 months (including early terminations after 12 months), mean [1]: 0.056
- Patients who progressed and also had a relapse during the study (post-hoc subgroup analysis, 33/54 patients): 61.1%
